“And” between values parts separate entries of the source, which are not always exact repeats. Equal entries are not always repeated.
What was measured:
plasma HIV RNA = test: Plasma HIV RNA copy number by cDNA gene amplification (PCR) and enzyme-linked affinity assay; assay type: in vivo, human (HIV antibody-positive subjects)
Text: After informed consent was obtained, whole blood samples were collected by venipuncture in the presence of acid-citrate-dextrose as an anticoagulant. A single plasma sample was collected from 39 HIV antibody-positive subjects who were not receiving antiretroviral therapy at the time of collection and from 33 HIV antibody-positive subjects who were currently on and had received AZT for a minimum of 3 mo.
Two plasma samples were collected from an additional 27 subjects before and 1 month after initiation of dideoxynucleoside therapy. 18 of these subjects received 500 mg/d of AZT orally. Seven subjects received a combination of zidovudine (150-600 mg/d) and 2′,3′-dideoxyinosine (ddI) (134-500 mg/d). Two patients received 500 mg/d of ddI alone (see Table I for individual subject characteristics). Finally, nine of these subjects had two plasma samples taken 1-3 wk. before initiating antiretroviral therapy and two plasma samples taken 1 and 2 mo. after commencing therapy. Plasma was separated within 4 h. by centrifugation at 500 g for 10 min. A second centrifugation was performed on the plasma at 500 g for 30 min. to remove any cellular material. 200 μl of plasma was then mixed with 200 μl of a solution containing 5M guanidinium thiocyanate, vortexed briefly, and stored at −70° C. until further use. All samples were assayed within 3 mo. of collection. To decrease variance, all specimens to be compared from the same subject were run in the same assay.
RNA was extracted from plasma by the method described in Chomczynski et al., 1987, Ann. Biochem. 162:156-159. Briefly, 200 μl of clarified plasma to which 200 μl of 5M guanidinium thiocyanate had previously been added was extracted with phenol/chloroform and precipitated with isopropanol. The resulting pellet was then washed in 75% ethanol, dried, and brought up in diethylpyrocarbonate treated, glass distilled water.
HIV RNA was transcribed to cDNA using Moloney murine leukemia virus reverse transcriptase (Bethesda Research Laboratories, Gaithersburg, Md.) by the method described in Kawasaki, 1990, “In PCR Protocols: A Guide to Methods and Applications” pp. 21-27, M. A. Innis, D. H. Gelfand, J. J. Sninsky, and T. J. White, eds. Academic Press, Berkeley, Calif. Oligomers used for amplification included SK38, SK39, and SK19 (Kellog et al., 1990, “In PCR Protocols: A Guide to Methods and Applications,” pp. 337-348, M. A. Innis, D. H. Gelfand, J. J. Sninsky, and T. J. White, eds. Academic Press, Berkeley, Calif.). Biotinylation of SK38 and horseradish peroxidase (HRP) labeling of probe SK19 were prepared as described in Levenson et al., 1990, “In PCR Protocols: A Guide to Methods and Applications,” pp. 99-112M. S. Innis, D. H. Gelfand, J. J. Sninsky, and T. J. White, eds. Academic Press, Berkeley, Calif. Amplification of HIV cDNA was carried out as follows: to a 100-μl reaction mixture was added the cDNA, 50 pmol of primers SK38 and SDK39, […] of each dNTP, 10 mM Tris (pH 8.3), 2.5 mM MgCl2, 50 mM KCl, and 2.5 U of recombiTaq DNA polymerase (Perkin-Elmer Cetus, Norwalk, Conn.). The mixture was then overlaid with 50 μl of mineral oil. Tubes were placed in a DNA thermal cycler (Perkin-Elmer Cetus) for 30 cycles of amplification with the following program: 95° C./30 s, 55° C./30s, and 72° C./60 s for denaturation, annealing, and extension, respectively. Negative and positive controls which included both high and low copy number HIV RNA and DNA were added at each step.
To detect and quantitate PCR product, 96-well microplates (Maxisorp; Nunc, Naperville, Ill.) were coated with 100 μl of a 0.1 mg/ml solution of avidin (Sigma Chemical Co., St. Louis, Mo.) in 50 mM Na2CO3 (pH 9.6) overnight at room temperature. Wells were then washed twice with PBS. Wells were then filled with 300 μl of a blocking solution containing 5X Denhardt's solution, 1% gelatin (Sigma), […] sheared herring sperm DNA (Promega Biotec, Madison, Wis.) at least overnight at 4° C. […]

CD4 cells = test: CD4 cell counts in long term AZT recipients related to codon 215 genotype; assay type: in vivo, human (HIV-infected patients); details: for CD4 decline after serum mutation / mean decrease of CD4 cells after serum mutation: 19 patients; for mean CD4 count at the start of therapy: 26 patients who developed codon 215 mutation in serum
Method: Cryopreserved PBMC and serum from 40 participants in AIDS Clinical Trial Group (ACTG) protocols 019 (30 patients) and 016 (10 patients) at Stanford University Medical Center AIDS Clinical Trial Unit were used in this study. Patients at enrollment in these studies were AZT naive, had >200 CD4 cells/μl and had few (016) or no symptoms (019) referable to HIV infection. They were subsequently treated with AZT for 2 to 4 years. The most common dosage was 500 mg per day.
CD4 cell counts were obtained approximately every three months on each patient. All counts were performed at Stanford's ACTG-qualified cytofluorometry lab. Samples were stained with monoclonal antibodies to CD3, CD4, and CD8. The absolute CD4 count was calculated by multiplying the percent CD4 by the total lymphocyte count.
All comparisons between the patients with mutant and wild type strains were performed using the student's t-test. The calculations on the IC90s determined by the zidovudine sensitive assay were performed using the logl10 transformed IC90 (i.e., geometric means were used rather than arithmetic means).

[1] = 11 patients wild type in serum over 34 months

## Cc1cn([C@H]2C[C@H](N=[N+]=[N-])[C@@H](CO)O2)c(=O)[nH]c1=O [AZT, zidovudine]
Plasma HIV RNA; 14 subjects on AZT with CD4 count <200/mm^3
  mean HIV RNA copy number: 295±5 per 200 μl of plasma
Plasma HIV RNA; 19 subjects on AZT with CD4 count >200/mm^3, below level of detection
  mean HIV RNA copy number: 16±5 per 200 μl of plasma
Plasma HIV RNA; 33 subjects currently on AZT (minimum 3 mo), mean±SEM, untreated 690±360
  mean plasma HIV RNA copy number: 134±219 per 200 μl of plasma
Plasma HIV RNA; AZT-treated subjects with <200 CD4 cells
  subjects with positive HIV RNA signal: 9 of 14
Plasma HIV RNA; all subjects receiving AZT, untreated 32 of 39
  subjects with positive HIV RNA signal: 16 of 33
Plasma HIV RNA; in vivo
  Post HIV RNA: 2769/437 copy number/200 μl of plasma
  Pre HIV RNA: 2769/437 copy number/200 μl of plasma
  subjects with detectable HIV RNA signal: 7 of 19
Plasma HIV RNA; individual patient, 1 mo after initiation, AZT 500 mg/d
  Post HIV RNA: 77 copy number/200 μl of plasma and 57 copy number/200 μl of plasma and 42 copy number/200 μl of plasma and 94/94 copy number/200 μl of plasma and 0/0 copy number/200 μl of plasma (2×) and 65 copy number/200 μl of plasma and 52 copy number/200 μl of plasma and 50 copy number/200 μl of plasma and 45 copy number/200 μl of plasma and 95/95 copy number/200 μl of plasma and 0 copy number/200 μl of plasma (3×) and 72 copy number/200 μl of plasma and 925 copy number/200 μl of plasma and 90 copy number/200 μl of plasma
Plasma HIV RNA; individual patient, before initiation of therapy
  Pre HIV RNA: 100 copy number/200 μl of plasma and 87 copy number/200 μl of plasma and 40 copy number/200 μl of plasma and 94/94 copy number/200 μl of plasma and 0/0 copy number/200 μl of plasma (2×) and 93 copy number/200 μl of plasma and 105 copy number/200 μl of plasma and 123 copy number/200 μl of plasma and 78 copy number/200 μl of plasma and 95/95 copy number/200 μl of plasma and 301 copy number/200 μl of plasma and 958 copy number/200 μl of plasma and 2014 copy number/200 μl of plasma and 106 copy number/200 μl of plasma and 130 copy number/200 μl of plasma and 550 copy number/200 μl of plasma
CD4 cells; [1]
  CD4 increase: 2%
  increase of CD4 cells: 7±92 CD4 cells/μl
CD4 cells; at 12 months
  CD4 decline after serum mutation: 40%
  mean decrease of CD4 cells after serum mutation: 170±121 CD4 cells/μl
CD4 cells; at six months
  CD4 decline after serum mutation: 25%
  mean decrease of CD4 cells after serum mutation: 100±116 CD4 cells/μl
CD4 cells; 21 patients wild type at codon 215
  mean increase in absolute CD4 count, start of therapy to end of study: 11%
CD4 cells; 21 patients wildtype at codon 215 in PBMC
  Starting absolute CD4: 397 cells/μl and 397 ± 124 cells/μl
CD4 cells; 26 patients
  mean CD4 count at first detection of codon 215 mutation in serum: 444±206 cells/μl and 444 cells/μl
CD4 cells
  mean CD4 count at the start of therapy: 398±139 cells/μl and 398 cells/μl
CD4 cells; listed as zidovudine
  mean CD4 count at the start of therapy: 398±139 cells/μl
CD4 cells; patients who remained wild type in serum
  starting CD4 count: 397±115 cells/μl
CD4 cells; wildtype at codon 215 in PBMC
  CD4 % at time of PCR analysis: 25% and 25 ± 9%
  Starting CD4 %: 26 ± 8%
CD4 cells; wildtype at codon 215 in PBMC, 33 ± 8 months of AZT
  Absolute CD4 at time of PCR analysis: 424 cell/μl and 424 ± 210 cell/μl
CD4 cells; {}
  Starting CD4 %: 25 ± 6%
  decrease in absolute CD4 count, start of therapy to end of study: 50%

Source: patent USRE38352E1, “Polymerase chain reaction assays for monitoring antiviral therapy and making therapeutic decisions in the treatment of acquired immunodeficiency syndrome” (priority 1992, dated 2003)
